Assay results reported in patent US20260028382A1, “IMMUNOGENIC PEPTIDES AND THEIR USES IN CANCER DIAGNOSIS AND THERAPY” (The Chinese University of Hong Kong, priority 2024, published 2026).

Test system: CD8+ T cells
Test: IFN-γ ELISpot assay of peptide immunogenicity (peptide-pulsed DC:CD8+ T cell co-culture)
Format: cell-based, human
Excerpt: We obtained peripheral mononuclear cells (PBMCs) from healthy donor buffy coat samples via density gradient centrifugation. We utilized QIAamp DNA Blood Kits (Qiagen) to isolate DNA for HLA typing with LinkSeq™ HLA-ABCDRDQDP+ 384 Kit (One Lambda) on a QuantStudio™ 7 Flex Real-Time PCR System. Human T and dendritic cells (DCs) were enriched from PBMCs using a CD8 cell isolation kit and Pan-DC enrichment kit (Miltenyi Biotec), respectively, and subsequently cultured in RPMI-1640 medium (Life Technologies) supplemented with 10% FBS and 100 U/mL of Penicillin-Streptomycin.
Dendritic cells (DCs) were pulsed with a 10 μg mL^−1 peptide concentration at a cell density of 10^5 cells/mL for 4 hours at 37° C. Following this, the DCs were mixed with autologous CD8+ T cells at a DC:T cell ratio of 1:10. The cell mixture was then aliquoted into an ELISpot plate at 100 μL per well and incubated for 24 hours. The secreted IFN-γ signal was detected using the ELISpot Plus Human IFN-γ (ALP) kit (Mabtech). […]
We utilized ELISpot assay, which quantifies cytokine IFN-γ releasing by CD8^+ T lymphocytes isolated from PBMCs of healthy subjects, to verify the immunogenic potential of candidate peptides. […] We co-cultured pan-DCs loaded with the candidate peptides with autologous CD8′ T cells for 24 hours and assessed the secretion of IFN-γ as an indicator of T-cell activation and immunogenicity.

Sequence	T cell response (IFN-γ secretion) (peptide concentration of 1 ug mL^−1, DC:CD8+ T cell co-culture, 24 hours, healthy donors)	immunogenicity demonstrated in the ELISpot analysis
MCDEDETTA [Actin1-9, peptide derived from human Actin within the amino acid region 1-9, negative control]	negligible response	–
STIHLASQFTK (Description of sequence: non-canonical peptide, associated gene: CRYBG1, classification: CDS (frame-shift), short form name: p9; listed as Homo sapiens)	–	strong immunogenicity
